{"source": "patent EP0575454B1", "about": "“USE OF CUCURBITINE FOR THE PREPARATION OF A COSMETIC OR PHARMACEUTICAL, PARTICULARLY DERMATOLOGICAL, ANTIALLERGIC COMPOSITION AND METHOD INVOLVING APPLICATION THEREOF” (PARFUMS CHRISTIAN DIOR, priority 1991, dated 1992)", "key": {"[1]": {"tested_on": "histidine décarboxylase (HDC)", "assay": "Enzymatic test: colorimetric assay (MBTH/DMAB) of histidine decarboxylase inhibition, initial reaction rates (Michaelis curves)", "assay_type": "biochemical", "details": "for vitesse initiale: racemic cucurbitine", "text": "Ce test est basé sur l'action inhibitrice de la cucurbitine sur l'enzyme histidine décarboxylase (HDC) qui transforme l'histidine en histamine, par rapport à celle de la tritoqualine, qui est un inhibiteur connu de l'HDC (voir Carpi C., Maggi G.C. Bull. Soc Ital. Sper. 1968, 44 (6 543-4), et qui est utilisée en thérapeutique comme hypohistaminémiant sous le non de Hypostamine®.\nL'activité inhibitrice sur l'HDC peut être aisément réalisée par un dosage colorimétrique sur la base de la réaction chimique suivante :\nMBTH = 3-méthyl-2-benzothiazolinone hydrazone DMAB = 3-(diméthylamino)benzoic acid\nEn pratique, on observe que la formation de la coloration bleue est proportionnelle à la concentration en histidine consommée. On a ainsi pu définir des vitesses initiales de réaction et établir des courbes dites de Mickaelis comme décrit dans Fundamentals of Enzymology, 2nd Ed. Oxford Univ. Press, 1989.\nLa vitesse initiale est exprimée en variation d'absorbance par minute.\nLes résultats obtenus avec diverses concentrations initiales d'histidine, à savoir à 132 nmol, 265 nmol, et 530 nmol, respectivement sans effecteur, avec tritoqualine comme inhibiteur d'HDC connu, et avec la cucurbitine sous forme racémique comme inhibiteur selon l'invention sont répertoriés au tableau II ci-après et font l'objet de la courbe de Mickaelis, objet de la figure 1. Tableau II"}, "[2]": {"tested_on": "enzyme HDC", "assay": "RIA (radioimmunoassay) of the histamine produced by the HDC enzyme", "assay_type": "biochemical", "details": "for % I (Inhibition) à 5 min / histamine libérée / % I (Inhibition) à 10 min: histidine 16.10^-3 molaire, effector 2.10^-3 molaire; for % I (Inhibition) à 5 min / % I (Inhibition) à 10 min: pH 6,3, 2000 µM; for histamine libérée: phosphate buffer pH 6,3", "text": "On peut également mettre en évidence l'activité anti-histaminique de la cucurbitine par un dosage radioimmunologique (Radio Immuno Assay ou \"RIA\") de la manière suivante.\nCe dosage a lieu en dosant l'histamine directement produite sous l'action de l'enzyme HDC, par la méthode RIA, bien connue à l'homme de l'art, et notamment décrite dans la notice d'utilisation d'un kit de dosage dénommé HISTAMINE Radioimmunoassay kit (Cat. # 1302) commercialisé par la Société IMMUNOTECH (Marseille-France).\nOn dose au cours du temps La quantité d'histamine libérée (en nanomoles) pour une concentration de 16.10^-3 molaire d'histidine dans un tampon phosphate à pH 6,3, respectivement sans effecteur, avec la tritoqualine comme effecteur de comparaison et avec de la cucurbitine racémique de synthèse comme agent anti-histaminique selon l'invention. La tritoqualine et la cucurbitine sont utilisées à la concentration de 2.10^-3 molaire.\nLes résultats obtenus exprimés en nanomoles […] libérée sont répertoriés au tableau III ci-après et font l'objet de la courbe de la figure 2 où l'on a indiqué en ordonnées le nombre de nanomoles d'histamine libérée et en abscisses le temps exprimé en minute. La courbe sans effecteur est tracée en trait continu, la courbe obtenue avec la tritoqualine est tracée en trait mixte et la courbe obtenue avec la cucurbitine est tracée en pointillés. TABLEAU III"}}, "data": [{"molecule": "NC1(C(=O)O)CCNC1", "note": "(racemic) [Cucurbitine, acide 3-amine-3-pyrrolidinecarboxylique]", "values": [{"measurement": "vitesse initiale", "setting": "[1]; Histidine 132 nmol", "result": "0,013 variation d'absorbance par minute"}, {"measurement": "vitesse initiale", "setting": "[1]; Histidine 265 nmol", "result": "0,0242 variation d'absorbance par minute"}, {"measurement": "vitesse initiale", "setting": "[1]; Histidine 530 nmol", "result": "0,042 variation d'absorbance par minute"}, {"measurement": "inhibiteur d'HDC (comparison in words)", "setting": "[1]; compared with tritoqualine, Table II and figure 1", "result": "beaucoup plus puissant que la tritoqualine"}, {"measurement": "% I (Inhibition) à 5 min", "setting": "[2]; 5 min", "result": 55, "unit": "%"}, {"measurement": "histamine libérée", "setting": "[2]; 5 min", "result": "14,85 nanomoles"}, {"measurement": "% I (Inhibition) à 10 min", "setting": "[2]; 10 min", "result": 73, "unit": "%"}, {"measurement": "histamine libérée", "setting": "[2]; 10 min", "result": "38,29 nanomoles"}, {"measurement": "activité inhibitrice de la formation d'histamine (comparison in words)", "setting": "[2]; compared with tritoqualine, after a few minutes", "result": "nettement plus puissante que la tritoqualine"}]}, {"molecule": "CCOc1c(N)c2c(c(OCC)c1OCC)C(C1c3c(cc4c(c3OC)OCO4)CCN1C)OC2=O", "note": "(stereo not shown) [Tritoqualine, tritoqualine, reference compound]", "values": [{"measurement": "vitesse initiale", "setting": "[1]; Histidine 132 nmol", "result": "0,021 variation d'absorbance par minute"}, {"measurement": "vitesse initiale", "setting": "[1]; Histidine 265 nmol", "result": "0,0374 variation d'absorbance par minute"}, {"measurement": "vitesse initiale", "setting": "[1]; Histidine 530 nmol", "result": "0,0604 variation d'absorbance par minute"}, {"measurement": "% I (Inhibition) à 5 min", "setting": "[2]; 5 min", "result": 49, "unit": "%"}, {"measurement": "histamine libérée", "setting": "[2]; 5 min", "result": "16,48 nanomoles"}, {"measurement": "% I (Inhibition) à 10 min", "setting": "[2]; 10 min", "result": 65, "unit": "%"}, {"measurement": "histamine libérée", "setting": "[2]; 10 min", "result": "49,27 nanomoles"}]}]}
